Reference: PMC7600127, “Peptide-Based TNF-α-Binding Decoy Therapy Mitigates Lipopolysaccharide-Induced Liver Injury in Mice” (Pharmaceuticals, 2020)

Tested on: LPS-induced liver injury
Assay: Exogenous TNF-α counteraction of SEM18 in LPS-treated mice
Assay type: in vivo, Balb/cJ mice
Conditions: LSEM + TNF-α group vs LSEM group; TNF-α 0.3 mg/kg then 3 x 0.15 mg/kg i.p. with SEM18; 24 h after LPS 15 mg/kg; n = 5
Experimental: Exogenous TNF-α (recombinant mouse TNF-α; R&D Systems, Minneapolis, MN, USA) was used to confirm whether the therapeutic effects of SEM18 peptide were mediated by decreasing TNF-α binding to TNFR1. A set of mice (n = 5, designated as the LSEM + TNF-α group) were treated with LPS as described earlier. Two hours after LPS, exogenous TNF-α (0.3 mg/kg i.p.) was administered, followed by SEM18 (0.3 mg/kg, i.p.). Supplemental doses of exogenous TNF-α administration (0.15 mg/kg, i.p.) and SEM18 (0.15 mg/kg, i.p.) were administered every 2 h three times. These mice were closely monitored for 24 h (starting from LPS administration). All mice survived the experiment. […]
Figure 7 Exogenous tumor necrosis factor (TNF)-α counteracts the effects of SEM18 peptide. (A) Binding of TNF-α to TNF receptor 1, as measured at 24 h after lipopolysaccharide (LPS) administration using immunofluorescence staining of proximity ligation assay (PLA). (B) Plasma concentrations of aspartate aminotransferase (AST) and alanine aminotransferase (ALT) and the wet/dry (W/D) weight ratio of the liver tissues, as measured at 24 h after LPS administration. […] For apoptosis analysis, liver tissues were assayed using the terminal deoxynucleotidyl transferase dUTP nick-end labeling (TUNEL) method and the mean TUNEL-positive cell in liver tissues (per 0.25 mm^2) was calculated, as measured at 24 h after LPS administration. […]

## recombinant mouse TNF-α [exogenous TNF-α]
  effect of exogenous TNF-α on the therapeutic effects of SEM18 peptide: counteracting the therapeutic effects of SEM18 peptide
